Measurements taken from patent US10301291B2, “Imidazole derivative having JNK inhibitory activity and use thereof” (SAMJIN PHARMACEUTICAL CO., LTD., priority 2016, dated 2019).

Experiments:
Assay in all cases: Kinase profiling service (Reaction Biology Corp.)
Type in all cases: biochemical
Details in all cases: compound 10 μM
FLT3 = FLT3 (Homo sapiens (Human), UniProt P36888)
Protocol: (§1) An inhibitory activity of the compound (10 μM) of Example 34 against various protein kinases was measured by means of a kinase profiling service (ICso profiler express) of Reaction Biology Corp., wherein ICso, a concentration at which JNK enzyme activity was inhibited 50%, was also measured by sequentially reducing a concentration of the compound.

KDR/VEGFR2 = KDR/VEGFR2 (Homo sapiens (Human), UniProt P35968)
Protocol: as §1

mTOR/FRAP1 = mTOR/FRAP1 (Homo sapiens (Human), UniProt P42345)
Protocol: as §1

LCK = LCK (Homo sapiens (Human), UniProt P06239)
Protocol: as §1

EGFR = EGFR (Homo sapiens (Human), UniProt P00533)
Protocol: as §1

JNK1 = JNK1 (Homo sapiens (Human), UniProt P45983)
Protocol: as §1

PKA = PKA (Homo sapiens (Human), UniProt P17612)
Protocol: as §1

IGF1R = IGF1R (Homo sapiens (Human), UniProt P08069)
Protocol: as §1

JNK2 = JNK2 (Homo sapiens (Human), UniProt P45984)
Protocol: as §1

PLK1 = PLK1 (Homo sapiens (Human), UniProt P53350)
Protocol: as §1

ERK2/MAPK1 = ERK2/MAPK1 (Homo sapiens (Human), UniProt P28482)
Protocol: as §1

AKT1 = AKT1 (Homo sapiens (Human), UniProt P31749)
Protocol: as §1

ALK = ALK (Homo sapiens (Human), UniProt Q9UM73)
Protocol: as §1

Aurora A = Aurora A (Homo sapiens (Human), UniProt O14965)
Protocol: as §1

LYN = LYN (Homo sapiens (Human), UniProt P07948)
Protocol: as §1

ERK1 = ERK1 (Homo sapiens (Human), UniProt P27361)
Protocol: as §1

FGFR3 = FGFR3 (Homo sapiens (Human), UniProt P22607)
Protocol: as §1

SYK = SYK (Homo sapiens (Human), UniProt P43405)
Protocol: as §1

FMS = FMS (Homo sapiens (Human), UniProt P07333)
Protocol: as §1

JNK3 = JNK3 (Homo sapiens (Human), UniProt P53779)
Protocol: as §1

FYN = FYN (Homo sapiens (Human), UniProt P06241)
Protocol: as §1

CDK1/cyclin B = CDK1/cyclin B (Homo sapiens (Human), UniProt P06493)
Protocol: as §1

GSK3b = GSK3b (Homo sapiens (Human), UniProt P49841)
Protocol: as §1

JAK3 = JAK3 (Homo sapiens (Human), UniProt P52333)
Protocol: as §1

LRRK2 = LRRK2 (Homo sapiens (Human), UniProt Q5S007)
Protocol: as §1

CDK2/cyclin E = CDK2/cyclin E (Homo sapiens (Human), UniProt P24941)
Protocol: as §1

MLK1/MAP3K9 = MLK1/MAP3K9 (Homo sapiens (Human), UniProt P80192)
Protocol: as §1

FAK/PTK2 = FAK/PTK2 (Homo sapiens (Human), UniProt Q05397)
Protocol: as §1

c-Kit = c-Kit (Homo sapiens (Human), UniProt P10721)
Protocol: as §1

c-MET = c-MET (Homo sapiens (Human), UniProt P08581)
Protocol: as §1

MEK1 = MEK1 (Homo sapiens (Human), UniProt Q02750)
Protocol: as §1

ROS/ROS1 = ROS/ROS1 (Homo sapiens (Human), UniProt P08922)
Protocol: as §1

c-Src = c-Src (Homo sapiens (Human), UniProt P12931)
Protocol: as §1

[1] = Data 1 and Data 2, read-out: % Enzyme Activity (relative to DMSO controls)

Chain of MLK1/MAP3K9 (P80192 whole entry): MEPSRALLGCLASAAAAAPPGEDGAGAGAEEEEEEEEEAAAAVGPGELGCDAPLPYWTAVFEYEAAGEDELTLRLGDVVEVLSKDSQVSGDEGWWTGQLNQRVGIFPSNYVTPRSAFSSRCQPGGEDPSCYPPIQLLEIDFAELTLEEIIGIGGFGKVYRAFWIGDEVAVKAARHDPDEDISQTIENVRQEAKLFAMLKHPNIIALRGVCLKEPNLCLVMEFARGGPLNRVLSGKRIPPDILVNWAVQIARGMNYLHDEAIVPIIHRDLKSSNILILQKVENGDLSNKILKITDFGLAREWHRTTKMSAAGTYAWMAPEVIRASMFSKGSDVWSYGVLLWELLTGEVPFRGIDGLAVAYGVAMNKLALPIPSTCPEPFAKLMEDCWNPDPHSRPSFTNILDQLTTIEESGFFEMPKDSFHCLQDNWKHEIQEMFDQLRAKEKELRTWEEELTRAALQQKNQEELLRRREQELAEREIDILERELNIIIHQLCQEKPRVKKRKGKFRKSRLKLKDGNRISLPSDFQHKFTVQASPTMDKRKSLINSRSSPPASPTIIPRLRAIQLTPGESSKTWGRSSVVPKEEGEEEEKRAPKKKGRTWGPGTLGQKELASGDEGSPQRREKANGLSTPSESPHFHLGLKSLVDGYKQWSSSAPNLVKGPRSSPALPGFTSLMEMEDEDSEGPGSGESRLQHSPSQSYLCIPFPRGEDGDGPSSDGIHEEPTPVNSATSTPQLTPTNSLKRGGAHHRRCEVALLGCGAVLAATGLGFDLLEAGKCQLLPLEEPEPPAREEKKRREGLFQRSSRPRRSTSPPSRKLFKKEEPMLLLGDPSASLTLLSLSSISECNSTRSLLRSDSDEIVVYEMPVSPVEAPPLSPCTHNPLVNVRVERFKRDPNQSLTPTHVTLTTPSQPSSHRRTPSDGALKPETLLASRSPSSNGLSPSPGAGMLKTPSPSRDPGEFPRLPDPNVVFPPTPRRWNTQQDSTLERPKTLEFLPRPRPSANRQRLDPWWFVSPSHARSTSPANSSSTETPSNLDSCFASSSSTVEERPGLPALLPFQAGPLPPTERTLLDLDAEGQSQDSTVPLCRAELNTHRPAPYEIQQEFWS
Chain of ERK2/MAPK1 (P28482 whole entry): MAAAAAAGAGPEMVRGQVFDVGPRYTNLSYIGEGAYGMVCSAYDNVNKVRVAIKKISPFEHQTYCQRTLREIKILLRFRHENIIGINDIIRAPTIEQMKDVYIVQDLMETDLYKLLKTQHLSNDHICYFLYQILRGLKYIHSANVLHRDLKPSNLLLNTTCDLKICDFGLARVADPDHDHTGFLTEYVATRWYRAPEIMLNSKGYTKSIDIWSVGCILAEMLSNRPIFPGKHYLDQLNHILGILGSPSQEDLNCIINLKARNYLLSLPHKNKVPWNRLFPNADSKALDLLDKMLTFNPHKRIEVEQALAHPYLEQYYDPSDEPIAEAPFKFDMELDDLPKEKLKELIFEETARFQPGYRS
Chain of c-MET (P08581 25-1390): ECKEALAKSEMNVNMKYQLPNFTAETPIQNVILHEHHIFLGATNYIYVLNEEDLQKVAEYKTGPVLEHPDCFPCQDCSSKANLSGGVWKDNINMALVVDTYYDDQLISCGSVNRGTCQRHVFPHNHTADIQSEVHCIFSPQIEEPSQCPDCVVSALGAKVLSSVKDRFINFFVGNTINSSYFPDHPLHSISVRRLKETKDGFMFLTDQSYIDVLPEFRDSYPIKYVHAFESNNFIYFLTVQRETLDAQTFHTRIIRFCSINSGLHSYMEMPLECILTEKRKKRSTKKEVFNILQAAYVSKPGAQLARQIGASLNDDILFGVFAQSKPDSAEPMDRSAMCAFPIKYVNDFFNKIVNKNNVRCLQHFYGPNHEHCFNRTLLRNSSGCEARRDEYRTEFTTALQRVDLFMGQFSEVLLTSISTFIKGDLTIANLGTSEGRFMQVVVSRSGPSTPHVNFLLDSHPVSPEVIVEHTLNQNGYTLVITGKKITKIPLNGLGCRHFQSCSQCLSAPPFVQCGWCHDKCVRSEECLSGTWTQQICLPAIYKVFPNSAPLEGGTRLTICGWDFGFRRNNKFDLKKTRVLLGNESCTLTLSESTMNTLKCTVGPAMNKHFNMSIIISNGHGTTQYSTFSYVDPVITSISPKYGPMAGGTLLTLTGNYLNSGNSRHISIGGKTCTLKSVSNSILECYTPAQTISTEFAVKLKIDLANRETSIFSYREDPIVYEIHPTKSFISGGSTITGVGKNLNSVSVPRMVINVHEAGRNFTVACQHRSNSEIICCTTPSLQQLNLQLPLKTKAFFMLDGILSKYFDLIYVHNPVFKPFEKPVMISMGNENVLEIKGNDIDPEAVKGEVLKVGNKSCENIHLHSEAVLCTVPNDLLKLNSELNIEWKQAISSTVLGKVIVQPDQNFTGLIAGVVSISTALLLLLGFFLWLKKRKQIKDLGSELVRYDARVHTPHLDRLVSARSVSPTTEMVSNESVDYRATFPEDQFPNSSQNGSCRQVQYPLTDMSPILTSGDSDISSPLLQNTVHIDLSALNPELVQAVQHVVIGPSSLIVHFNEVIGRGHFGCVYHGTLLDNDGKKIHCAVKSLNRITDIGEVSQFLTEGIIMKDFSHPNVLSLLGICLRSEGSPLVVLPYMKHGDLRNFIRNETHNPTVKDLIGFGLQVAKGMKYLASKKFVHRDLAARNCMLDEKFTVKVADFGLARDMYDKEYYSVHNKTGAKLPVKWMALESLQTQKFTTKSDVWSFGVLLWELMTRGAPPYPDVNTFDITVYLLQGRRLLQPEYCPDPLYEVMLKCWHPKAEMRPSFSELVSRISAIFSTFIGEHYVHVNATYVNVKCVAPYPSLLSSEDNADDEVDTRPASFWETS
Chain of c-Kit (P10721 26-976): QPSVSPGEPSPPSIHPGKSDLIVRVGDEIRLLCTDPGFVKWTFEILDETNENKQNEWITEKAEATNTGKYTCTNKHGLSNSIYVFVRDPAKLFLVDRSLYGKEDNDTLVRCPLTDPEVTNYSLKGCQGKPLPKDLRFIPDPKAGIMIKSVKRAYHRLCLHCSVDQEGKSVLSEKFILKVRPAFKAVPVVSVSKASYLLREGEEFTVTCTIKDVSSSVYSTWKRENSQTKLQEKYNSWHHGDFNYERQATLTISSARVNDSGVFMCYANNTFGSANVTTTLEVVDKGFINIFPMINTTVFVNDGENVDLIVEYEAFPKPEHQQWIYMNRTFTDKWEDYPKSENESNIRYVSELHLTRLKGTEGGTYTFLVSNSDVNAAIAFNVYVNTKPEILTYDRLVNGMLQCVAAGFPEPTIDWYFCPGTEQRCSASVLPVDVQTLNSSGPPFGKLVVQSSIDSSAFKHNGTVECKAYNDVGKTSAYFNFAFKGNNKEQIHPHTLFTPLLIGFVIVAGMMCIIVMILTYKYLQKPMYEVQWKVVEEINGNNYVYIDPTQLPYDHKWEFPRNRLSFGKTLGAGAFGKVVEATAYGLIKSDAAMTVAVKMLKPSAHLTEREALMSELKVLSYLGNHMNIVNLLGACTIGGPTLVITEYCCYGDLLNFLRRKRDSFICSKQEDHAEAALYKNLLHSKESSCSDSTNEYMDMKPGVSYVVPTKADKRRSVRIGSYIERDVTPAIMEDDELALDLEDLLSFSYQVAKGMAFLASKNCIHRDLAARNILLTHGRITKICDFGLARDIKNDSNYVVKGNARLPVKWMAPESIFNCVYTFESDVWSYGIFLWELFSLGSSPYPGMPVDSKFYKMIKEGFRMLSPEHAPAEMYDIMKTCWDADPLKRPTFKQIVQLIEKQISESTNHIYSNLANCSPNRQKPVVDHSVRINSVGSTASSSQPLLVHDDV
Chain of FAK/PTK2 (Q05397 whole entry): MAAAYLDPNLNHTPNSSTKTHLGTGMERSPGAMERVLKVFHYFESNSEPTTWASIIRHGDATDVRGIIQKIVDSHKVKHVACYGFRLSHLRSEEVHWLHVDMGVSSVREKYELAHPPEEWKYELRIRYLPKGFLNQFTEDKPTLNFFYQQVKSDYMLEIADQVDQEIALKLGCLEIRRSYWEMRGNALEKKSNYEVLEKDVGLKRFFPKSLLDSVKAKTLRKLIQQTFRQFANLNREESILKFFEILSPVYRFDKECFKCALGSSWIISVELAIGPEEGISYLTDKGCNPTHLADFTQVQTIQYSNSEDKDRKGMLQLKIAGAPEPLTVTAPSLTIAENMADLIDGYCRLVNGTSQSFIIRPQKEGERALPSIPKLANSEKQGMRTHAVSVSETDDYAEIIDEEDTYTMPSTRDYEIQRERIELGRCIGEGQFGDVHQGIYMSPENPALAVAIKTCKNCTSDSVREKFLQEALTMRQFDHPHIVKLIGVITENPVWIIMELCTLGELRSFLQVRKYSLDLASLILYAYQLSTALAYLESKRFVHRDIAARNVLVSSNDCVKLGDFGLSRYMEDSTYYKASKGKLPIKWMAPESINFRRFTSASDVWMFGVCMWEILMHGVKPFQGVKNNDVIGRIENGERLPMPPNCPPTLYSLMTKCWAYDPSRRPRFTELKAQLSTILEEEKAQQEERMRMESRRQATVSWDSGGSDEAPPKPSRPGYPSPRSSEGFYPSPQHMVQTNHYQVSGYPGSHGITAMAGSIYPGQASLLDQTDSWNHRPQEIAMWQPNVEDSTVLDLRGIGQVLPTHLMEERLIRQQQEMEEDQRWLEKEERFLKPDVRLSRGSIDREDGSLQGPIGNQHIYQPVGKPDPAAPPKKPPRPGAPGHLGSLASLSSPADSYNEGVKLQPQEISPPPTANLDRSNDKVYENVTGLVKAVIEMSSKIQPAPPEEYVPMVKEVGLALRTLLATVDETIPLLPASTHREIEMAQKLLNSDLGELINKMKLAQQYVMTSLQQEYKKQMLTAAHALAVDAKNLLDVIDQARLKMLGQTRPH

N#CCc1cnc(-c2ccc3ccccc3c2)n1-c1ccnc(NC2CCCN(C(=O)C3CC3)C2)n1 (stereo not drawn) [Example 34, 2-(1-(2-(1-(cyclopropanecarbonyl)piperidine-3-ylamino)pyrimidine-4-yl)-2-(naphthalene-2-yl)-1H-imidazole-5-yl)acetonitrile] was tested, and the “% Enzyme Activity (relative to DMSO controls)” value (FLT3; Data 1 and Data 2) was 96.52%, the remaining activity at 10 µM (FLT3; [1]) was 98.7% and the “% Enzyme Activity (relative to DMSO controls)” value (KDR/VEGFR2; Data 1 and Data 2) was 73.81%. The remaining activity at 10 µM (KDR/VEGFR2; [1]) was 74.1%, the “% Enzyme Activity (relative to DMSO controls)” value (mTOR/FRAP1; Data 1 and Data 2) was 101.65% and the remaining activity at 10 µM (mTOR/FRAP1; [1]) was 105%. For the same compound, the “% Enzyme Activity (relative to DMSO controls)” value (LCK; Data 1 and Data 2) was 95.50%, the remaining activity at 10 µM (LCK; [1]) was 95.8% and the “% Enzyme Activity (relative to DMSO controls)” value (EGFR; Data 1 and Data 2) was 67.11%. For the same compound, the remaining activity at 10 µM (EGFR; [1]) was 68.4%, the “% Enzyme Activity (relative to DMSO controls)” value (JNK1; Data 1 and Data 2) was 2.84% and the remaining activity at 10 µM (JNK1; [1]) was 3.04%. The “% Enzyme Activity (relative to DMSO controls)” value (PKA; Data 1 and Data 2) was 96.45%, the remaining activity at 10 µM (PKA; [1]) was 97.3% and the “% Enzyme Activity (relative to DMSO controls)” value (IGF1R; Data 1 and Data 2) was 92.45%. For the same compound, the remaining activity at 10 µM (IGF1R; [1]) was 93.1%, the “% Enzyme Activity (relative to DMSO controls)” value (JNK2; Data 1 and Data 2) was 1.40% and the remaining activity at 10 µM (JNK2; [1]) was 1.41%. For the same compound, the “% Enzyme Activity (relative to DMSO controls)” value (PLK1; Data 1 and Data 2) was 97.02%, the remaining activity at 10 µM (PLK1; [1]) was 98.8% and the “% Enzyme Activity (relative to DMSO controls)” value (ERK2/MAPK1; Data 1 and Data 2) was 97.70%. For the same compound, the remaining activity at 10 µM (ERK2/MAPK1; [1]) was 98%, the “% Enzyme Activity (relative to DMSO controls)” value (AKT1; Data 1 and Data 2) was 99.04% and the remaining activity at 10 µM (AKT1; [1]) was 103%. The “% Enzyme Activity (relative to DMSO controls)” value (ALK; Data 1 and Data 2) was 97.85%, the remaining activity at 10 µM (ALK; [1]) was 98% and the “% Enzyme Activity (relative to DMSO controls)” value (Aurora A; Data 1 and Data 2) was 101.98%. For the same compound, the remaining activity at 10 µM (Aurora A; [1]) was 102%, the “% Enzyme Activity (relative to DMSO controls)” value (LYN; Data 1 and Data 2) was 85.66% and the remaining activity at 10 µM (LYN; [1]) was 86.6%. The “% Enzyme Activity (relative to DMSO controls)” value (ERK1; Data 1 and Data 2) was 97.98%, the remaining activity at 10 µM (ERK1; [1]) was 98.5% and the “% Enzyme Activity (relative to DMSO controls)” value (FGFR3; Data 1 and Data 2) was 91.29%. For the same compound, the remaining activity at 10 µM (FGFR3; [1]) was 91.4%, the “% Enzyme Activity (relative to DMSO controls)” value (SYK; Data 1 and Data 2) was 97.43% and the remaining activity at 10 µM (SYK; [1]) was 98.1%. For the same compound, the “% Enzyme Activity (relative to DMSO controls)” value (FMS; Data 1 and Data 2) was 93.11%, the remaining activity at 10 µM (FMS; [1]) was 93.7% and the “% Enzyme Activity (relative to DMSO controls)” value (JNK3; Data 1 and Data 2) was 4.81%. The remaining activity at 10 µM (JNK3; [1]) was 5.04%, the “% Enzyme Activity (relative to DMSO controls)” value (FYN; Data 1 and Data 2) was 94.86% and the remaining activity at 10 µM (FYN; [1]) was 95.6%. The “% Enzyme Activity (relative to DMSO controls)” value (CDK1/cyclin B; Data 1 and Data 2) was 90.33%, the remaining activity at 10 µM (CDK1/cyclin B; [1]) was 90.7% and the “% Enzyme Activity (relative to DMSO controls)” value (GSK3b; Data 1 and Data 2) was 29.80%. For the same compound, the remaining activity at 10 µM (GSK3b; [1]) was 29.9%, the “% Enzyme Activity (relative to DMSO controls)” value (JAK3; Data 1 and Data 2) was 99.82% and the remaining activity at 10 µM (JAK3; [1]) was 101%. For the same compound, the “% Enzyme Activity (relative to DMSO controls)” value (LRRK2; Data 1 and Data 2) was 95.95%, the remaining activity at 10 µM (LRRK2; [1]) was 96.3% and the “% Enzyme Activity (relative to DMSO controls)” value (CDK2/cyclin E; Data 1 and Data 2) was 95.83%. For the same compound, the remaining activity at 10 µM (CDK2/cyclin E; [1]) was 97.5%, the “% Enzyme Activity (relative to DMSO controls)” value (MLK1/MAP3K9; Data 1 and Data 2) was 93.90% and the remaining activity at 10 µM (MLK1/MAP3K9; [1]) was 95.7%. For the same compound, the “% Enzyme Activity (relative to DMSO controls)” value (FAK/PTK2; Data 1 and Data 2) was 99.94%, the remaining activity at 10 µM (FAK/PTK2; [1]) was 101% and the “% Enzyme Activity (relative to DMSO controls)” value (c-Kit; Data 1 and Data 2) was 92.65%. The remaining activity at 10 µM (c-Kit; [1]) was 93.4%, the “% Enzyme Activity (relative to DMSO controls)” value (c-MET; Data 1 and Data 2) was 90.72% and the remaining activity at 10 µM (c-MET; [1]) was 105%. The “% Enzyme Activity (relative to DMSO controls)” value (MEK1; Data 1 and Data 2) was 104.84%, the remaining activity at 10 µM (MEK1; [1]) was 105% and the “% Enzyme Activity (relative to DMSO controls)” value (ROS/ROS1; Data 1 and Data 2) was 95.23%. The remaining activity at 10 µM (ROS/ROS1; [1]) was 97.8%, the “% Enzyme Activity (relative to DMSO controls)” value (c-Src; Data 1 and Data 2) was 92.54% and the remaining activity at 10 µM (c-Src; [1]) was 94%.
